Assay results as given in ChEMBL document CHEMBL3507680, “University of Dundee, Gates Library screen for HepG2 cell viability”.

Experiment: Human HepG2 cell viability assay in 384 well format
Type: toxicity, cell-based
Set-up: dose 125 nL, time 70.5 hour; cytotoxicity at 70.5 h: concentration not given beside the values
Conditions: HepG2 cells, read-out: Inhibition

Compound | cytotoxicity at 70.5 h [%]
Cc1noc(C(C)N2CCN(CC(=O)N3CCCC3)CC2)n1 (centres undefined) | -1.93
Cc1nc2cc(F)ccc2cc1C(=O)N1CCN(CC(C)O)CC1 (centres undefined) | -9.69
Cc1nc(Cn2nc(C3CCNCC3)n(Cc3ccccc3)c2=O)no1 | 6.65
O=C1COc2ccc(Br)cc2CN1CC1CC1 | -16.7
CC(C)(Cn1cnc(-c2ccccc2)c1-c1ccco1)N1CCOCC1 | -10.2
COc1ccccc1CC(C)N(C)CCS(C)(=O)=O (centres undefined) | -14.1
O=C(Nc1ccccc1F)c1nn(C2CCS(=O)(=O)C2)c2c1CCCC2 (centres undefined) | -7.2
Cc1nnc2n1CCN(Cc1csc(-c3cnn(C)c3)n1)C2 | -3.97
CCOc1ccccc1C(CC(=O)O)NC(C)=O (centres undefined) | -4.62
COc1c(C(=O)NC(C)CC(=O)c2cccs2)c(C)nn1C (centres undefined) | -0.066
CCN(CC)S(=O)(=O)N1CCCC(c2ccc(C(=O)O)cc2)C1 (centres undefined) | -4.81
Cc1n[nH]c(C2CN(CCCOc3ccc(F)cc3)CCO2)n1 (centres undefined) | -12.3
CCCSCC(=O)N1CCN(c2ccc(C)cc2)CC1C (centres undefined) | -14.9
CCn1nc2nc(SCC(=O)O)cc(C(F)F)c2c1C | -5.31
CNC(=O)c1cccc(C2CNCCN2C(=O)c2cccc(F)c2)c1 (centres undefined) | 25
CC(C)(C)NC(=O)CN1CCCNCC1 | -0.58
CC(=O)Nc1ccc(CNc2cccc(CS(C)(=O)=O)c2)cc1 | -3.91
O=C(O)C1CN(c2cncc(Cc3ccccc3)n2)C1 | -3.73
COCCC(=O)N1CC[C@H]2C(=O)N(c3ccsc3)CCO[C@H]2C1 | -1.99
CCOC(=O)C(C)Nc1cccc(COCc2ccco2)c1 (centres undefined) | -1.34
CCNC(=O)[C@@H]1C[C@@H](N)CN1C(=O)Cc1cc(C)ccc1C | -8.37
O=C(Cc1ccccn1)N1C[C@H]2CN(Cc3ccccn3)C[C@H]2C1 | -10
CN1CCN(C2CCCC2)C(CCO)C1 (centres undefined) | -1.81

Compound | cytotoxicity at 70.5 h [%]
COc1ccc(CN(C)CC(=O)NC2(C)CCS(=O)(=O)C2)cc1F (centres undefined) | -0.516
CN(C)C(=O)NCc1ncn2c1CN(S(C)(=O)=O)CCC2 | -4.56
Cn1cc(C2CCCN2C(=O)Cn2c(=O)oc3ccccc32)cn1 (centres undefined) | -4.25
CN(C)c1ccc(C(=O)NCc2ccc(N3CCOCC3)cc2)cn1 | 14.5
Cc1ccc(-n2nnc(CC(=O)N3CCN(C(C)C)CC3)c2C)cc1 | -10.5
CC(C)(C)c1ccc(C(=O)C2CCCN(C(=O)CNS(C)(=O)=O)C2)cc1 (centres undefined) | 23.1
Cc1ccc(Cl)c(CN2CCC(c3nccn3C(C)C)CC2)c1F | -1.48
Cc1nnc(SCc2ccccn2)s1 | 1.03
CCN(CC)CCNC(=O)CCc1c(C)nn(-c2ccccc2Br)c1C | 8.21
Cc1nn(C)c(C)c1OCC(=O)NCC(O)c1ccco1 (centres undefined) | 16
COc1c(C)cc(S(=O)(=O)NCC2CNCCOC2)cc1C (centres undefined) | 3.62
CC(NC(=O)COc1ccccc1C(=O)O)c1ccc(F)cc1 (centres undefined) | -9.45
CC(=O)NCCC1CCCCN1S(=O)(=O)c1cccc(Cl)c1 (centres undefined) | 36.4
Cc1cc(C)n(CC(C)NC(=O)C2(c3ccccc3F)CC2)n1 (centres undefined) | -7.8
Cc1noc(C)c1C(=O)NCc1ccc(N2CCCCCC2)nc1 | -6.77
COCCOc1cccc(C(=O)N2CCCC(n3ccnc3C)C2)c1 (centres undefined) | -2.47
Nc1ncccc1CN1CCCn2nc(CCC(=O)NC3CC3)cc2C1 | -2.41
Cc1cccc(C(=O)NCCS(=O)(=O)Cc2ccccc2)c1 | -8.95
CCc1nccn1C1CCCN(C(=O)c2csc(C3CC3)n2)C1 (centres undefined) | -22
CCC(CC)C(=O)N1CCN(Cc2cc(=O)c3ccccc3[nH]2)CC1 | 7.24
O=C(NCc1ccc(N2CC=CC2)cc1)Nc1nnc(C2CC2)s1 | 22.1
COCC1CCN(CCCc2cccc(OC)c2)CC1 | 30.7
COc1ccc(C(=O)N(C)Cc2cc(C)on2)c(F)c1 | -10.6

Compound | cytotoxicity at 70.5 h [%]
CS(=O)(=O)c1ccc(CN2C[C@@H]3OCC(=O)N(CC(N)=O)[C@@H]3C2)cc1 | -4.08
Cc1ccc(C2NC(=O)c3cc(C(C)C)sc3N2)cc1 (centres undefined) | -5.82
CCc1ccc(CN2CCC3(CC2)C(=O)N(C)CCN3CC)cc1 | -10.4
Cc1nc(N2CCOCC2)nc2c1CN(C(=O)Cc1ccccn1)CC2 | -8.21
O=C(NC1CCC1)[C@H]1CCS(=O)(=O)[C@@H]2CN(CCc3ccccc3)C[C@H]12 | 0.419
COc1cc2ccccc2cc1C(=O)N1CCCC(c2nncn2C)C1 (centres undefined) | -11.4
O=C(c1n[nH]c2c1CN(C1CCOCC1)CC2)N1CCCC1 | -6.32
COC(=O)c1sc(C(NC(=O)c2ccccc2)C2CC2)nc1C (centres undefined) | -3.65
OC1CCN(c2ccnc(NCCN3CCc4ccccc4C3)n2)C1 (centres undefined) | -13.9
Cc1ccc(C(C)N(C)Cc2nc3c(cnn3C)c(=O)[nH]2)s1 (centres undefined) | -8.32
Cc1cc(C[C@@H]2COC[C@@H]2NC(=O)Cn2c(=O)oc3ccccc32)on1 | 1.37
COCCN1CCN(Cc2ccncc2)c2ncccc2C1 | -11
O=C([C@H]1C[C@@H]2CCN(C3CCOCC3)C[C@@H]2O1)N1CCOCC1 | -5.58
COc1cc(CNC(=O)N2CCCC2c2cc(C)no2)ccn1 (centres undefined) | -15.1
O=S(=O)(NC1CCCN(c2ncccn2)C1)N1CCCCCC1 (centres undefined) | -7.28
COc1ccc(C(=O)NCCCC2(C3OCCO3)CCOCC2)cc1 | -1.34
COc1ncccc1CNC(=O)c1cnccn1 | -12.4
COCCN1CCC(Nc2c(F)cc(C#N)cc2F)CC1 | -14.5
O=C(CCc1ccccc1)C1CCCN(Cc2cncn2C2CC2)C1 (centres undefined) | 2.12
CS(=O)(=O)N1CC(c2nc[nH]n2)c2cc(C(=O)NC3CCCC3)ccc21 (centres undefined) | -20.4
CN(CCc1ccccn1)C(=O)c1cnn(-c2ccccc2F)c1N | 7.25
CCCS(=O)(=O)NCC(C)(O)c1ccsc1 (centres undefined) | -4.32
CC(C)NC(=O)N[C@H]1C[C@@H](c2nc(-c3ccncc3)no2)N(C)C1 | -5.9

Compound | cytotoxicity at 70.5 h [%]
CCNC(=O)CN1CCSC2(CCCCC2)C1 | -11.1
COCCN(CCOC)C(=O)c1cccc(Cn2nc(C)cc2C)c1 | 0.115
CC(Oc1cc(Cl)cc(Cl)c1)C(=O)NCCOCC(N)=O (centres undefined) | 18
Cc1cccc(CNc2cncc(-n3cccn3)n2)c1 | -5.29
C=C(C)COc1cccc(C(=O)N2CCC3(CC2)CN(C)CCN3C)c1 | -7.19
CC(=O)c1csc(-c2csc(Cn3ccc(=O)[nH]c3=O)n2)c1 | 4.03
COc1ccc(-c2cc(C3(O)CCN(C)CC3)on2)cc1 | -0.517
c1cc(CNCc2cccc3c2OCCO3)cc(Cn2cncn2)c1 | -10.5
COc1ncccc1CNC(=O)NC1CCCOc2ccccc21 (centres undefined) | -4.36
O=C(COCC(F)(F)C(F)F)N1CCC2(CCCN(CC3CC3)C2=O)C1 (centres undefined) | -8.88
Cc1cnn(C2CCCN(C(=O)CCCn3ccnc3C)C2)c1 (centres undefined) | 19.3
CCn1cnnc1CNC(=O)N(C)Cc1ccc2c(c1)OCO2 | -10.2
CN1CCN(C(=O)c2cc(-c3cccs3)cs2)CC1 | -10.5
CCNC(=O)[C@@H]1C[C@@H](N)CN1C(=O)c1cc2ccccc2[nH]1 | -1.64
OCCN1CCC(c2csc(Nc3cnccn3)n2)CC1 | 14.5
Cc1noc(C)c1CN1CCO[C@H]2[C@H](Oc3ncccc3F)CC[C@@H]21 | -9.05
CN(CC(=O)NC1CCOCC1)C1CCCN(c2cccnn2)C1 (centres undefined) | -2.74
CCOc1ccc(Cl)c(C(=O)N(C)C)n1 | -2.99
Cc1c(C(=O)NCCC(=O)N2CCOCC2)oc2c(C)cccc12 | -12.9
Cc1nc(-c2nc(C(=O)NC3CC3)c3ccccn23)cn1C(C)C | -2.95
Cc1cnn(CC(=O)N2CCC3(CCC(=O)N(CC(C)O)C3)CC2)c1 (centres undefined) | -5.26
COCC(c1ccccn1)N(C)C(=O)c1cc(-c2ccccc2O)n[nH]1 (centres undefined) | -6.79
COc1ccccc1-c1noc(CNc2ccc(F)cc2OCCO)n1 | 9.78

Compound | cytotoxicity at 70.5 h [%]
COc1cccc(-c2ncc3c(n2)N(C)CCN(CCN(C)C)C3=O)c1 | -6.84
Cc1nc(CO[C@@H]2CN(Cc3ccsc3)[C@@H]3COC[C@@H]32)cs1 | -6.52
COc1cccc(N2CC3(CCN(c4cnccn4)C3)CC2=O)c1 (centres undefined) | 13.8
COCCN1CCC2(C1)CN(c1ncccn1)C2 | -0.0538
COc1ccccc1CCNC(=O)N1CCCC(c2nncn2C)C1 (centres undefined) | -1.17
CC(=O)N1CCCC(c2cnc(-c3c(C)nn(C)c3C)cn2)C1 (centres undefined) | -20.6
CCOC1CCCN(C(=O)NCCc2ccn(-c3ccccc3)n2)C1 (centres undefined) | 9.56
O=C(Cc1c[nH]c2ccccc12)N1CCC(Nc2cccnn2)CC1 | -10.3
CCC1c2ccsc2CCN1C(=O)NCc1ccc(C)nc1 (centres undefined) | -10.2
CCc1ccc(C(=O)N2CC[C@](C)(O)C(C)(C)C2)[nH]1 | -3.24
Cc1cnn(CCNCc2cccc(C#N)c2)c1 | 4.17
CNC(=O)c1cnc2c(C)csc2c1 | 22
O=C(CCCn1cncn1)N1CCCCC1c1nccs1 (centres undefined) | -4.13
Cc1cc(C(=O)N(CC(F)(F)F)C2CCOCC2)c(C)o1 | -7.23
COCCN(Cc1ccc(F)cc1Cl)C(=O)c1ccccn1 | 9.84
O=C(Cc1ccc(F)cc1)N1CCn2cc(Cn3cccn3)nc2C1 | -1.99
CC(=O)c1cc(C(=O)N2CC[C@@H]3CC[C@H](C2)N3C)c(=O)[nH]c1C | 22.4
CC(C)(C)OCCN1CCCC1c1nc(Cc2ccc(F)cc2)no1 (centres undefined) | 11.6
CC(C)Oc1ccc(CNC(=O)CN(C)S(C)(=O)=O)cc1F | -6.43
COC(=O)C(C)(C)NC(=O)C1CC(=O)N(C2CCCC2)C1 (centres undefined) | -9.13
CSc1ncc(CNCC2(N3CCCCC3)Cc3ccccc3C2)cn1 | -1.26
COc1c(C)cnc(CSc2nnc(N3CCCC3)s2)c1C | 8.14
